PMC11480361, “Design of a Cereblon construct for crystallographic and biophysical studies of protein degraders” (Nature Communications, 2024)
Where “and” joins values, the source holds several entries; their conditions need not be identical. Equal entries are not always repeated.

Key:
[1] = tested on: T1, CRBN^TBD and BRD4^BD2; test: TR-FRET ternary complex formation with BRD4^BD2; assay type: binding, human; settings: for TR-FRET signal: CRBNTBD, source data Fig. 3h, replicates
T1 construct: Human Brd4^BD2 (residues 333–460, UniProt ID: O60885); GST (cleaved yes); His6; His6 (N); made in house; host or cells: E. coli BL21(DE3)
Protocol: (§1) The mixture was incubated in the dark with gentle rocking for 1 hour before readout using a PHERAstar microplate reader (BMG Labtech) with Pherastar software (version 5.70 R5). All incubations were conducted at 20 °C. Data were fitted by non-linear regression (curve fit) using Prism software (GraphPad version 10). Experiments were conducted in triplicate and were the average of three repeats.

[2] = tested on: T2, CRBN^ΔN:DDB1^ΔBPB and BRD4^BD2; test: TR-FRET ternary complex formation with BRD4^BD2; assay type: binding, human; settings: for TR-FRET signal: CRBNΔN-DDB1ΔBPB, source data Fig. 3h, replicates
T2 construct: a construct lacking the unstructured N-terminal region of CRBN (CRBN^ΔN:DDB1); Human Brd4^BD2 (residues 333–460, UniProt ID: O60885); His6 (N); purchased Selvita
Protocol: as §1

[3] = target: T3, CRBN^midi and BRD4^BD2 (Homo sapiens, UniProt O60885+Q96SW2, C287N/C343E/C78I/DEL188-248/G302D/I92V/INS187GSG/K116N/L342R/L423I/Q134E/R283W/T359I/V293S); test: SPR, CRBN^midi on chip, ternary (analyte with 50 µM BRD4^BD2); assay type: binding
T3 construct: amino acids 41-187 followed by a Gly-Ser-Gly linker and amino acids 249-426; Human Brd4^BD2 (residues 333–460, UniProt ID: O60885); His6 (N); made in house; host or cells: E. coli BL21(DE3)
T3 sequence (Q96SW2 with tags, fused parts or gaps with the stated changes limits assumed, other chains not shown): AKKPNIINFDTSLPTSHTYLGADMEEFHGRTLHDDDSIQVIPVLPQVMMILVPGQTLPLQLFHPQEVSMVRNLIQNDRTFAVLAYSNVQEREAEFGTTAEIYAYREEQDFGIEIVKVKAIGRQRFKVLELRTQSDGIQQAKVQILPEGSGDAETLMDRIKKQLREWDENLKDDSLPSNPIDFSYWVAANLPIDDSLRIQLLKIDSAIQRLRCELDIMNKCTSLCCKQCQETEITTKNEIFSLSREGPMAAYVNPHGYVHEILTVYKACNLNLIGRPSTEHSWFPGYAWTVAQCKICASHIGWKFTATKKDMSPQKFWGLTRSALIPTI
Protocol: All SPR measurements were carried out on a Biacore^TM 8 K (Cytiva, Biacore Insight Control Software version 5.0.18.22405). […] The buffer for immobilization and all kinetic measurements was 50 mM Tris pH 8.0, 150 mM NaCl, 0.25 mM TCEP, 0.005% (v/v) Tween-20 and 2% (v/v) DMSO.
(§2) For ternary experiments the analyte was supplemented with 50 µM BRD4^BD2. Each concentration point was flowed independently at 50 µL/min. with an association time of 150 s followed by 500 s dissociation. All measurements were carried out at 20 °C.
(§3) Data was analyzed using Biacore^TM Insight Evaluation Software (version 4.0.8.20368). Raw sensograms were solvent corrected, followed by reference and blank subtraction. […] Alpha, a parameter indicative of cooperativity, was calculated by dividing binary KD by ternary KD.

[4] = target: T3, CRBN^midi and BRD4^BD2; test: TR-FRET ternary complex formation with BRD4^BD2; assay type: binding; settings: for TR-FRET signal: CRBNmidi, source data Fig. 3h, replicates
Protocol: as §1

[5] = target: T4, CRBN^midi (Homo sapiens, UniProt Q96SW2, C287N/C343E/C78I/DEL188-248/G302D/I92V/INS187GSG/K116N/L342R/L423I/Q134E/R283W/T359I/V293S); test: SPR, CRBN^midi on chip, binary; assay type: binding
T4 construct: amino acids 41-187 followed by a Gly-Ser-Gly linker and amino acids 249-426; His6 (N, cleaved yes); made in house; host or cells: E. coli BL21(DE3)
T4 sequence (Q96SW2 with tags, fused parts or gaps with the stated changes limits assumed): as the sequence (Q96SW2 with tags, fused parts or gaps with the stated changes limits assumed, other chains not shown) above
Protocol: All SPR measurements were carried out on a Biacore^TM 8 K (Cytiva, Biacore Insight Control Software version 5.0.18.22405). CRBN^midi was immobilized via a His6 tag on a NiHC 1500 M chip (XanTec) at 25 °C. The chip surface was prepared for ligand (CRBN^midi) capture as per manufacturer’s instructions, flowing 350 mM EDTA, followed by buffer, then loaded using 5 mM NiCl2 followed by buffer. For binary measurements CRBN^midi was diluted to 350 nM and flowed at 10 µL/min. for 420 s to capture a final bound response of 240 RUs. For […] measurements, 10 nM of CRBN^midi was flowed at 10 µl/min. for 420 s to capture a final bound response of approximately 10,000 RUs. The buffer for immobilization and all kinetic measurements was 50 mM Tris pH 8.0, 150 mM NaCl, 0.25 mM TCEP, 0.005% (v/v) Tween-20 and 2% (v/v) DMSO.
as §2, §3

[6] = CRBN^midi immobilization level 240
[7] = CRBN^midi immobilization level 9581

Cc1nnc2n1-c1ccc(-c3cnn(CCCCCCCN4CCC(c5cccc6c5CN(C5CCC(=O)NC5=O)C6=O)CC4)c3)cc1C(c1ccc(Cl)cc1)=NC21CC1 (centres unmarked) [CFT-1297]
TR-FRET signal ([1]; CFT-1297 6.3657e-10 M): -100 and -96 and -91 and -28 and -32 and -31 and -4 and -7 and 0 | TR-FRET signal ([1]; CFT-1297 2.01156e-9 M): 20 and 18 and 19 and 27 (2×) and 31 and 16 and 0 and 9 | TR-FRET signal ([1]; CFT-1297 6.35653e-9 M): 17 and 14 and 10 and 42 and 47 and 37 and 20 and 23 and 11 | TR-FRET signal ([1]; CFT-1297 2.00866e-8 M): 45 and 44 and 40 and 53 and 52 (2×) and 41 and 50 | TR-FRET signal ([1]; CFT-1297 6.34738e-8 M): 117 and 115 and 122 and 101 and 103 and 107 and 98 and 97 and 102 | TR-FRET signal ([1]; CFT-1297 2.00577e-7 M): 132 and 129 and 128 and 106 and 105 and 108 and 111 and 110 | TR-FRET signal ([1]; CFT-1297 6.33824e-7 M): 109 and 104 and 106 and 98 and 78 and 100 | TR-FRET signal ([1]; CFT-1297 2.00288e-6 M): 112 and 117 and 108 and 92 and 89 and 102 and 91 and 95 and 90 | TR-FRET signal ([1]; CFT-1297 6.32911e-6 M): 131 (2×) and 129 and 112 and 107 and 117 and 110 and 105 | ternary complex formation by TR-FRET ([1]; CRBN^TBD, BRD4^BD2): no significant ternary complex formation was detected | maximal concentration of bell-shaped TR-FRET profile ([2]; CRBN^ΔN:DDB1^ΔBPB, BRD4^BD2): 17 nM | TR-FRET signal ([2]; CFT-1297 6.3657e-10 M): 5 and -3 and 2 and 6 and 3 and 13 and 20 | TR-FRET signal ([2]; CFT-1297 2.01156e-9 M): 73 and 94 and 64 and 70 and 78 and 68 and 83 and 85 and 77 | TR-FRET signal ([2]; CFT-1297 6.35653e-9 M): 339 and 359 and 325 and 342 and 338 and 345 and 352 and 373 and 376 | TR-FRET signal ([2]; CFT-1297 2.00866e-8 M): 756 and 794 and 735 and 761 and 799 and 801 and 763 and 726 and 762 | TR-FRET signal ([2]; CFT-1297 6.34738e-8 M): 382 (2×) and 392 and 395 and 387 and 370 and 383 and 372 and 363 | TR-FRET signal ([2]; CFT-1297 2.00577e-7 M): 131 and 143 and 127 and 140 and 124 and 132 and 129 and 147 and 119 | TR-FRET signal ([2]; CFT-1297 6.33824e-7 M): 50 and 51 and 69 and 66 and 56 and 71 and 52 and 54 and 38 | TR-FRET signal ([2]; CFT-1297 2.00288e-6 M): 14 and 4 and 16 and 27 and 34 and 33 and -10 and -1 and -13 | TR-FRET signal ([2]; CFT-1297 6.32911e-6 M): 11 and 4 and 8 and 21 and 25 and 18 and 13 and 9 and 23 | Experimental Rmax / Theoretical Rmax [3]: 55% | cooperativity α (binary KD / ternary KD) [3]: 3 | Experimental Rmax [3, 6]: 56 | Theoretical Rmax [3, 6]: 101 | maximal concentration of bell-shaped TR-FRET profile ([4]; CRBN^midi, BRD4^BD2): 21 nM | TR-FRET signal ([4]; CFT-1297 6.3657e-10 M): 120 and 116 and 105 and 148 and 130 and 152 and 174 and 158 and 167 | TR-FRET signal ([4]; CFT-1297 2.01156e-9 M): 347 and 363 (2×) and 394 and 412 and 387 and 420 (2×) and 430 | TR-FRET signal ([4]; CFT-1297 6.35653e-9 M): 931 and 924 and 913 and 954 and 948 and 945 and 981 and 982 and 990 | TR-FRET signal ([4]; CFT-1297 2.00866e-8 M): 1502 and 1521 and 1538 and 1551 and 1571 and 1561 and 1573 and 1559 and 1582 | TR-FRET signal ([4]; CFT-1297 6.34738e-8 M): 850 and 872 and 886 and 873 and 864 and 854 and 799 and 811 and 813 | TR-FRET signal ([4]; CFT-1297 2.00577e-7 M): 376 and 352 and 403 and 396 and 394 (2×) and 313 and 326 and 341 | TR-FRET signal ([4]; CFT-1297 6.33824e-7 M): 185 and 204 and 173 and 213 and 220 and 205 and 126 and 137 and 130 | TR-FRET signal ([4]; CFT-1297 2.00288e-6 M): 130 and 122 and 145 and 152 and 153 and 147 and 79 and 88 and 84 | TR-FRET signal ([4]; CFT-1297 6.32911e-6 M): 113 and 129 and 102 and 140 and 135 and 145 and 75 and 68 and 78 | Experimental Rmax / Theoretical Rmax [5]: 93% | Kd [5]: 2100 nM | Experimental Rmax [5, 7]: 196 | Theoretical Rmax [5, 7]: 211
